Source: US20100022559A1, “BISOXIMES AS FUNGICIDES” (BAYER CROPSCIENCE AG, priority 2006, published 2010)
Blank lines part the entries; values can stand above or below the compound they belong to.

Test: logP determination by HPLC on a reversed-phase column (C 18), EEC Directive 79/831 Annex V.A8
Assay type: physicochemical
Details: for chromatographic logP: reversed-phase HPLC column (C 18), HCO2H, HPLC reversed-phase column (C 18), 43° C., read-out: logP (HCO2H)
Experimental: The stated logP values were determined in accordance with EEC Directive 79/831 Annex V.A8 by HPLC (high performance liquid chromatography) on a reversed-phase column (C 18). Temperature: 43° C.

[1] = method marker [b], isomer A / isomer B / isomer mixture as noted in the cell
[2] = method marker [a] (footnote not shown), isomer A / isomer B / isomer mixture as noted in the cell

SMILES: CC(=NOCCCCCCON=C(C)c1cccnc1C)c1cccc(C)n1 [compound 461]
logP (value marked [b]): 2.27^[b]

SMILES: CC(=NOCC(C)(C)CON=C(C)c1ccc2c(n1)CCCCC2)c1ccc2c(n1)CCCCC2 [Compound 592]
logP (method marked [a] in Table 1): 6.04^[a]

SMILES: Cc1cc(C)nc(/C(N)=N/OCC(C)CO/N=C(\N)c2nc(C)cc(C)n2)n1 (centres unmarked) [drawing 85, N′,N″-[(2-methylpropane-1,3-diyl)bis(oxy)]bis(4,6-dimethylpyrimidine-2-carboximidamide)]
chromatographic logP: 1.81

SMILES: CC(=NOCC1(CON=C(C)c2cc(C)cc(C)n2)CC(C(C)(C)C)=NO1)c1cc(C)cc(C)n1 (centres unmarked) [compound 642]
logP (method marked [b] in Table 1): 2.62^[b]

SMILES: CCC(=NOCC1(CON=C(CC)c2cccc(C)n2)CC(c2cccc(Cl)c2)=NO1)c1cccc(C)n1 (centres unmarked) [compound 613]
logP (method marked [b] in Table 1): 5.84^[b]

SMILES: CC(=NOCC1OC1CON=C(C)c1cccc(C)n1)c1cccc(C)n1 (racemic) [compound 286]
logP (value marked [b]): 2.08^[b]

SMILES: CC(=NOC/C=C/CON=C(C)c1ccc(C)c(C)n1)c1ccc(C)c(C)n1 [compound 684]
logP (method marked [a] in Table 1): 2.67^[a]

SMILES: CC(=O)OCC#Cc1cc(C)nc(C(C)=NOCC(C)CON=C(C)c2cc(C#CCOC(C)=O)cc(C)n2)c1 (centres unmarked) [compound 875]
logP (value marked [a]): 6.25^[a] | logP (value marked [b]): 6.25^[b] | logP (value marked [c]): 6.31^[c]

SMILES: C=C(CON=C(C)c1cccc(C)n1)CON=C(CC)c1ncccc1C (single isomer, unassigned) [compound 142]
logP [1]: 3.84^[b] (isomer )B

SMILES: CC(=NOC(=O)CCC(=O)ON=C(C)c1cccc(C)n1)c1cccc(C)n1 [compound 159]
logP [2]: 2.40^[a]

SMILES: CC(=NOC(=O)NCCCCNC(=O)ON=C(C)c1cccc(C)n1)c1cccc(C)n1 [compound 864]
logP (value marked [a]): 1.97^[a]

SMILES: CC(=NOCCCCON=C(C)c1cccc(C)n1)c1ccccc1 [compound 385]
logP (value marked [b]): 4.68^[b]

SMILES: CCC(=NOCC(C)CON=C(CC)c1ncccc1C)c1ncccc1C (single isomer, unassigned) [compound 100]
logP [2]: 3.58^[a] (isomer A)

SMILES: Cc1ccc(C(=NOCCCON=C(c2ccc(C)c(C)n2)C(C)C)C(C)C)nc1C (mixture of isomers) [compound 238]
logP [2]: 4.94^[a]

SMILES: CC(=NOCC1(CON=C(C)c2cccc(C)n2)CCC1)c1cccc(C)n1 [Compound 289]
logP (value marked [b]): 4.77^[b]

SMILES: CC(=NOC(=O)N(C)C(=O)ON=C(C)c1cccc(C)n1)c1cccc(C)n1 [compound 744]
logP (method marked [b] in Table 1): 2.57^[b]

SMILES: CC(=NOCC1(CON=C(C)c2cc(C)cc(C)n2)CCCC1)c1cc(C)cc(C)n1 [Compound 589]
logP (method marked [b] in Table 1): 3.35^[b] | logP (method marked [c] in Table 1): 7.36^[c]

SMILES: C/C(=N\OCC(C)CO/N=C(\C)c1cncc(C)n1)c1cccc(C)n1 (centres unmarked) [compound 505]
logP (value marked [b]): 3.85^[b]

SMILES: CC(=NOCC(C)(C)CON=C(C)c1ccc(Cl)s1)c1cccc(C)n1 [Compound 486]
logP (value marked [b]): 5.84^[b]

SMILES: CC(=NOCC(C)CON=C(C)c1ccc(Cl)nc1)c1ccc(Cl)nc1 (centres unmarked) [compound 106]
logP [2]: 4.79^[a]

SMILES: C=C(CON=C(C)c1cccc(C)n1)CON=C(C#N)c1ccc(C)c(C)n1 [Compound 821]
logP (value marked [a]): 3.74^[a]

SMILES: C=C(CON=C(C)c1ccccn1)CON=C(C)c1cccc(C)n1 (single isomer, unassigned) [Compound 17]
logP [1]: 3.10^[b] (isomer A)

SMILES: CCc1cccc(C(C)=NOCC(C)(C)CON=C(C)c2cccc(C)n2)n1 [Compound 370]
logP (value marked [b]): 5.78^[b]

SMILES: CC(=NOCCCCON=C(C)c1cccc(C)n1)c1ccnc(C)c1 [compound 338]
logP (value marked [b]): 1.71^[b]

SMILES: CC(=NOCC(CON=C(C)c1ccc(C)c(C)n1)C(C)C)c1ccc(C)c(C)n1 (centres unmarked) [Compound 681]
logP (method marked [b] in Table 1): 4.57^[b] | logP (method marked [c] in Table 1): 7.18^[c]

SMILES: CC(=NOC1CCC(ON=C(C)c2cccc(C)n2)C1)c1cccc(C)n1 (mixture of isomers) [compound 797]
logP (value marked [a]): 4.60^[a]

SMILES: CC(C)=CC1=NOC(CO/N=C(\C)c2ccc(C)c(C)n2)(CO/N=C(\C)c2ccc(C)c(C)n2)C1 [compound 636]
logP (method marked [b] in Table 1): 3.46^[b]

SMILES: CC(=NOCCON=C(C)c1nc(C)cs1)c1nc(C)cs1 [compound 52]
logP [1]: 3.63^[b]

SMILES: C=C(CON=C(C)c1cccc(C)n1)CON=C(C)c1cccn1C [compound 197]
logP [1]: 4.37^[b]

SMILES: CC(=NOCC1(CON=C(C)c2nc(C)ccc2C)CC1)c1nc(C)ccc1C (single isomer, unassigned) [compound 765]
logP (value marked [b]): 3.15^[b] | logP (value marked [c]): 4.95^[c]

SMILES: CCSC(=NOCC(C)CON=C(SCC)c1cccc(C)n1)c1cccc(C)n1 (centres unmarked) [Compound 820]
logP (value marked [a]): 4.35^[a]

SMILES: CC(=NOCC1(CON=C(C)c2cccc(C)n2)CC(c2ccccc2Cl)=NO1)c1cccc(C)n1 (centres unmarked) [compound 602]
logP (method marked [b] in Table 1): 4.46^[b]

SMILES: CC(=NOCC(C)CON=C(C)c1ccc2cccc(C)c2n1)c1ccc2cccc(C)c2n1 (centres unmarked) [compound 687]
logP (method marked [b] in Table 1): 7.36^[b] | logP (method marked [c] in Table 1): 7.36^[c]

SMILES: CC(=NOCCCCCCON=C(C)c1sc(C)nc1C)c1cccc(C)n1 (single isomer, unassigned) [compound 542]
logP (method marked [b] in Table 1): 3.99^[b] (isomer A)

SMILES: CCc1cccc(C(C)=NOCCCCON=C(C)c2cccc(C)n2)n1 [compound 329]
logP (value marked [b]): 4.72^[b]

SMILES: COc1cccc(C(C)=NOCCCCON=C(C)c2cccc(C)n2)c1 [compound 443]
logP (value marked [b]): 4.57^[b]

SMILES: CC(=NOCC(C)CON=C(C)c1ccnc(C)n1)c1ccnc(C)n1 (centres unmarked) [compound 168]
logP [2]: 3.57^a]

SMILES: C/C(=N\OCC(C)CO/N=C(\C)c1cccc(C)n1)c1cccc(C)n1 [1-(6-methylpyridin-2-yl)ethanone O,O′-(2-methylpropane-1,3-diyl)oxime]
chromatographic logP: 2.31

SMILES: CC(=NOCC(CON=C(C)c1nc(C)ccc1C)C(C)C)c1nc(C)ccc1C (single isomer, unassigned) [compound 752]
logP (method marked [b] in Table 1): 2.89^[b] | logP (method marked [c] in Table 1): 4.85^[c]

SMILES: CC(=NOCC(C)(C)CON=C(C)c1cccc(-c2ccc(C(C)(C)C)cc2)n1)c1cccc(-c2ccc(C(C)(C)C)cc2)n1 [compound 580]
logP (method marked [a] in Table 1): 7.36^[a]

SMILES: CC(=NOCC1(CON=C(C)c2cccc(C)n2)CCCC1)c1cccc(C)n1 [Compound 587]
logP (method marked [b] in Table 1): 5.49^b] | logP (method marked [c] in Table 1): 7.33^[c]

SMILES: C=C(CO/N=C(\N)c1nc(C)c(Cl)c(C)n1)CO/N=C(\N)c1nc(C)c(Cl)c(C)n1 [compound 46]
logP [1]: 2.84^[b]

SMILES: CC(=NOCC(C)CON=C(c1ccccc1)c1ncccc1C)c1cccc(C)n1 (centres unmarked) [compound 421]
logP (value marked [b]): 4.15^[b]

SMILES: C=C(CON=C(C)c1cc(C)cc(C)n1)CON=C(C)c1cc(C)cc(C)n1 [Compound 219]
logP [1]: 1.98^[b]

SMILES: Cc1cccc(C(=NOCC(C)CON=C(c2cccc(C)n2)C(F)(F)F)C(F)(F)F)n1 (centres unmarked) [compound 214]
logP [1]: 4.83^[b]

SMILES: CC(=NOCCCCCCON=C(C)c1cccc(C)n1)c1cccc(C(F)(F)F)c1 [compound 387]
logP (value marked [b]): 6.51^[b]

SMILES: CCC(=NOCC(C)CON=C(CC)c1cc(C)cc(C)n1)c1cc(C)cc(C)n1 (single isomer, unassigned) [compound 691]
logP (method marked [a] in Table 1): 2.75^[a] (isomer A)

Further lines, results first:

logP (value marked [b]): 7.36^[b] | logP (value marked [c]): 7.36^[c]
SMILES: COc1c(Cl)cc(C(C)=NOCC(C)CON=C(C)c2cc(Cl)c(OC)c(C)n2)nc1C (centres unmarked) [compound 839]

logP (value marked [b]): 1.90^[b]
SMILES: CC(=NOCCCCON=C(C)c1cccc(C)n1)c1ccc(C)nc1 [compound 382]

logP [1]: 6.02^[b]
SMILES: C=C(CON=C(C)c1cccc(C(F)(F)F)n1)CON=C(C)c1cccc(C(F)(F)F)n1 [compound 176]

logP [1]: 3.10^[b]
SMILES: CC(=NOCCCON=C(C)c1sc(C)nc1C)c1sc(C)nc1C [compound 54]

logP (value marked [a]): 5.27^[a]
SMILES: CC(=NOCC(C)CON=C(C)c1cccc(C)n1)c1ccc2c(c1)CC(C)O2 (centres unmarked) [compound 494]

logP (value marked [b]): 4.85^[b]
SMILES: CC(=NOCC(C)CON=C(C)c1nc(C)c(C)s1)c1cccc(C)n1 (centres unmarked) [compound 434]

logP [1]: 5.25^[b]
SMILES: C=C(CON=C(C)c1cccc(C)n1)CON=C(C)c1ccc2ccccc2n1 [Compound 202]

logP (value marked [b]): 1.75^[b]
SMILES: Cc1cc(C)nc(C(N)=NOC/C=C\CON=C(N)c2nc(C)cc(C)n2)n1 [compound 773]

logP (value marked [a]): 5.98^[a] | logP (value marked [b]): 5.98^[b] | logP (value marked [c]): 6.52^[c]
SMILES: CC[Si](C)(CON=C(C)c1cccc(C)n1)CON=C(C)c1cccc(C)n1 [Compound 785]

logP (value marked [a]): 7.36^[a]
SMILES: CC(=NOCC1(CON=C(C)c2cccc(C3CC3)n2)CC1)c1cccc(C2CC2)n1 [Compound 848]

logP (method marked [b] in Table 1): 2.49^[b] | logP (method marked [c] in Table 1): 4.33^[c]
SMILES: CC(=NOCc1cccc(CON=C(C)c2cccc(C)n2)n1)c1cccc(C)n1 [Compound 740]

logP (value marked [a]): 6.65^[a] | logP (value marked [b]): 6.65^[b] | logP (value marked [c]): 7.01^[c]
SMILES: CC[Si](CC)(CON=C(C)c1cccc(C)n1)CON=C(C)c1cccc(C)n1 [Compound 782]

logP (value marked [b]): 3.24^[b]
SMILES: C=C(CON=C(C)c1cccc(C)n1)CON=C(C)c1ccnc(C)n1 [compound 360]

logP (value marked [a]): 4.14^[a]
SMILES: CC(=NOCC(C)CON=C(C)c1ccc2c(n1)CCC2)c1ccc2c(n1)CCC2 (centres unmarked) [Compound 300]

logP (value marked [b]): 5.24^[b] | logP (value marked [c]): 6.66^[c]
SMILES: CCC(CC)(CON=C(C)c1nc(C)ccc1C)CON=C(C)c1nc(C)ccc1C [compound 812]

logP [1]: 4,56^[b] (isomer A)
SMILES: C=C(CON=C(C)c1cccs1)CON=C(C)c1cccs1 (single isomer, unassigned) [compound 79]

logP (value marked [b]): 6.36^[b]
SMILES: CCCc1cccc(C(C)=NOCC(C)(C)CON=C(C)c2cccc(C)n2)n1 [compound 489]

logP (method marked [b] in Table 1): 2.55^[b]
SMILES: CC(=NOCC1(CON=C(C)c2cc(C)cc(C)n2)CC(c2ccccc2)=NO1)c1cc(C)cc(C)n1 (centres unmarked) [compound 643]

logP (value marked [b]): 6.16^[b]
SMILES: CCCC(=NOCCCCCCON=C(C)c1cccc(C)n1)c1cccc(C)n1 [compound 345]

logP (value marked [b]): 5.71^[b]
SMILES: CC(=NOCC(C)CON=C(C)c1cccc(C)n1)c1cccc(C(F)(F)F)c1 (centres unmarked) [compound 433]

logP (method marked [b] in Table 1): 3.76^[b]
SMILES: CC(=NOCc1ccc(CON=C(C)c2ccccn2)cc1)c1ccccn1 [compound 734]
